# Assay results taken from PubChem BioAssay AID1259407 (Chemical Carcinogenesis Research Information System (CCRIS), 2018).
# “Also recorded” adds a separate entry of the source. The source made the active and inactive calls. The rule behind the calls is not given here.
# Test system: CCRIS mutagenicity, Ames/micronucleus/aberration tests
# Assay: CCRIS mutagenicity studies
structure (smiles),measurement,setting,value
O=C(c1ccccc1)C(O)c1ccccc1 (stereo unspecified),mutagenic call,"End Point: IN VITRO CHROMOSOMAL ABERRATIONS, Test System: CHL/IU CELLS, Metabolic Activation: RAT, LIVER, S-9, PHENOBARBITAL AND 5,6-BENZOFLAVONE",active; positive (structural changes)
same,mutagenic call,"End Point: IN VITRO CHROMOSOMAL ABERRATIONS, Test System: CHO CELLS, Metabolic Activation: NONE",active; positive; weak response; precipitation occurred at 500 ug/ml; also recorded: inactive; negative; precipitation occurred at 500 ug/ml
same,mutagenic call,"End Point: IN VITRO MICRONUCLEUS, Test System: CHL/IU CELLS, Metabolic Activation: RAT, LIVER, S-9, PHENOBARBITAL AND 5,6-BENZOFLAVONE",active; positive
same,mutagenic call,"End Point: IN VIVO MICRONUCLEUS, Test System: BLOOD ERYTHROCYTES, Species: MOUSE, Strain/Sex: CD-1/MALE, Route: ORAL",inactive; negative
same,mutagenic call,"Test System: AMES SALMONELLA TYPHIMURIUM, Strain/Indicator: TA97, Metabolic Activation: HAMSTER LIVER S-9, AROCLOR 1254 (10%), Method: PREINCUBATION",inactive; negative
same,mutagenic call,"Test System: AMES SALMONELLA TYPHIMURIUM, Strain/Indicator: TA97, Metabolic Activation: NONE, Method: PREINCUBATION",inactive; negative
same,mutagenic call,"Test System: AMES SALMONELLA TYPHIMURIUM, Strain/Indicator: TA97, Metabolic Activation: NONE, Method: STANDARD PLATE",inactive; negative
same,mutagenic call,"Test System: AMES SALMONELLA TYPHIMURIUM, Strain/Indicator: TA97, Metabolic Activation: RAT LIVER S-9, AROCLOR 1254 (10%), Method: PREINCUBATION",inactive; negative
same,mutagenic call,"Test System: AMES SALMONELLA TYPHIMURIUM, Strain/Indicator: TA97, Metabolic Activation: S-9, Method: STANDARD PLATE",inactive; negative
same,mutagenic call,"Test System: AMES SALMONELLA TYPHIMURIUM, Strain/Indicator: TA98, Metabolic Activation: HAMSTER LIVER S-9, AROCLOR 1254 (10%), Method: PREINCUBATION",inactive; negative
same,mutagenic call,"Test System: AMES SALMONELLA TYPHIMURIUM, Strain/Indicator: TA98, Metabolic Activation: NONE, Method: PREINCUBATION",inactive; negative
same,mutagenic call,"Test System: AMES SALMONELLA TYPHIMURIUM, Strain/Indicator: TA98, Metabolic Activation: NONE, Method: STANDARD PLATE",inactive; negative
same,mutagenic call,"Test System: AMES SALMONELLA TYPHIMURIUM, Strain/Indicator: TA98, Metabolic Activation: RAT LIVER S-9, AROCLOR 1254 (10%), Method: PREINCUBATION",inactive; negative
same,mutagenic call,"Test System: AMES SALMONELLA TYPHIMURIUM, Strain/Indicator: TA98, Metabolic Activation: RAT, LIVER, S-9, AROCLOR 1254, Method: STANDARD PLATE",inactive; negative
same,mutagenic call,"Test System: AMES SALMONELLA TYPHIMURIUM, Strain/Indicator: TA98, Metabolic Activation: S-9, Method: STANDARD PLATE",inactive; negative
same,mutagenic call,"Test System: AMES SALMONELLA TYPHIMURIUM, Strain/Indicator: TA100, Metabolic Activation: HAMSTER LIVER S-9, AROCLOR 1254 (10%), Method: PREINCUBATION",inactive; negative
same,mutagenic call,"Test System: AMES SALMONELLA TYPHIMURIUM, Strain/Indicator: TA100, Metabolic Activation: NONE, Method: PREINCUBATION",inactive; negative
same,mutagenic call,"Test System: AMES SALMONELLA TYPHIMURIUM, Strain/Indicator: TA100, Metabolic Activation: NONE, Method: STANDARD PLATE",inactive; negative
same,mutagenic call,"Test System: AMES SALMONELLA TYPHIMURIUM, Strain/Indicator: TA100, Metabolic Activation: RAT LIVER S-9 AROCLOR 1254 (10%), Method: PREINCUBATION",inactive; negative
same,mutagenic call,"Test System: AMES SALMONELLA TYPHIMURIUM, Strain/Indicator: TA100, Metabolic Activation: RAT, LIVER, S-9, AROCLOR 1254, Method: STANDARD PLATE",inactive; negative
same,mutagenic call,"Test System: AMES SALMONELLA TYPHIMURIUM, Strain/Indicator: TA100, Metabolic Activation: S-9, Method: STANDARD PLATE",inactive; negative
same,mutagenic call,"Test System: AMES SALMONELLA TYPHIMURIUM, Strain/Indicator: TA102, Metabolic Activation: NONE, Method: STANDARD PLATE",inactive; negative
same,mutagenic call,"Test System: AMES SALMONELLA TYPHIMURIUM, Strain/Indicator: TA102, Metabolic Activation: RAT LIVER S-9, PHENOBARBITAL AND 5,6-BENZOFLAVONE, Method: STANDARD PLATE",inactive; negative
same,mutagenic call,"Test System: AMES SALMONELLA TYPHIMURIUM, Strain/Indicator: TA102, Metabolic Activation: RAT, LIVER, S-9, AROCLOR 1254, Method: STANDARD PLATE",inactive; negative
same,mutagenic call,"Test System: AMES SALMONELLA TYPHIMURIUM, Strain/Indicator: TA102, Metabolic Activation: S-9, Method: STANDARD PLATE",inactive; negative
same,mutagenic call,"Test System: AMES SALMONELLA TYPHIMURIUM, Strain/Indicator: TA1535, Metabolic Activation: HAMSTER LIVER S-9, AROCLOR 1254 (5%), Method: PREINCUBATION",inactive; negative
same,mutagenic call,"Test System: AMES SALMONELLA TYPHIMURIUM, Strain/Indicator: TA1535, Metabolic Activation: HAMSTER LIVER S-9, AROCLOR 1254 (10%), Method: PREINCUBATION",inactive; negative
same,mutagenic call,"Test System: AMES SALMONELLA TYPHIMURIUM, Strain/Indicator: TA1535, Metabolic Activation: NONE, Method: PREINCUBATION",active; positive
same,mutagenic call,"Test System: AMES SALMONELLA TYPHIMURIUM, Strain/Indicator: TA1535, Metabolic Activation: NONE, Method: STANDARD PLATE",inactive; negative
same,mutagenic call,"Test System: AMES SALMONELLA TYPHIMURIUM, Strain/Indicator: TA1535, Metabolic Activation: RAT LIVER S-9, AROCLOR 1254 (5%), Method: PREINCUBATION",inactive; negative
same,mutagenic call,"Test System: AMES SALMONELLA TYPHIMURIUM, Strain/Indicator: TA1535, Metabolic Activation: RAT LIVER S-9, AROCLOR 1254 (10%), Method: PREINCUBATION",inactive; negative
same,mutagenic call,"Test System: AMES SALMONELLA TYPHIMURIUM, Strain/Indicator: TA1535, Metabolic Activation: RAT, LIVER, S-9, AROCLOR 1254, Method: STANDARD PLATE",inactive; negative
same,mutagenic call,"Test System: AMES SALMONELLA TYPHIMURIUM, Strain/Indicator: TA1537, Metabolic Activation: NONE, Method: STANDARD PLATE",inactive; negative
same,mutagenic call,"Test System: AMES SALMONELLA TYPHIMURIUM, Strain/Indicator: TA1537, Metabolic Activation: RAT, LIVER, S-9, AROCLOR 1254, Method: STANDARD PLATE",inactive; negative
same,mutagenic call,"Test System: AMES SALMONELLA TYPHIMURIUM, Strain/Indicator: TA1538, Metabolic Activation: NONE, Method: STANDARD PLATE",inactive; negative
same,mutagenic call,"Test System: AMES SALMONELLA TYPHIMURIUM, Strain/Indicator: TA1538, Metabolic Activation: RAT, LIVER, S-9, AROCLOR 1254, Method: STANDARD PLATE",inactive; negative
same,mutagenic call,"Test System: AMES SALMONELLA TYPHIMURIUM, Strain/Indicator: TA2638, Metabolic Activation: RAT LIVER S-9, PHENOBARBITAL AND 5,6-BENZOFLAVONE, Method: STANDARD PLATE",inactive; negative
same,mutagenic call,"Test System: CHINESE HAMSTER OVARY, Strain/Indicator: CHO-K1-BH4 (HGPRT)/6-THIOGUANINE, Metabolic Activation: NONE, Method: SUSPENSION/PLATE",inactive; negative
same,mutagenic call,"Test System: CHINESE HAMSTER OVARY, Strain/Indicator: CHO-K1-BH4 (HGPRT)/6-THIOGUANINE, Metabolic Activation: S-9, Method: SUSPENSION/PLATE",inactive; negative
same,mutagenic call,"Test System: CHINESE HAMSTER OVARY, Strain/Indicator: CHO-K1-BH4 (HGPRT), Metabolic Activation: NONE, Method: SUSPENSION/PLATE",inactive; negative
same,mutagenic call,"Test System: CHINESE HAMSTER OVARY, Strain/Indicator: CHO-K1-BH4 (HGPRT), Metabolic Activation: RAT, LIVER, S-9, AROCLOR, Method: SUSPENSION/PLATE",inactive; negative
same,mutagenic call,"Test System: CHINESE HAMSTER V-79, Strain/Indicator: V-79 (HGPRT)/8-AZAGUANINE, Metabolic Activation: NONE, Method: REPLATING",inactive; negative
same,mutagenic call,"Test System: CHINESE HAMSTER V-79, Strain/Indicator: V-79 (HGPRT)/8-AZAGUANINE, Metabolic Activation: RAT, LIVER, S-9, AROCLOR 1254, Method: REPLATING",active; positive
same,mutagenic call,"Test System: CHINESE HAMSTER V-79, Strain/Indicator: V-79/6-THIOGUANINE, Metabolic Activation: NONE, Method: REPLATING",inactive; negative
same,mutagenic call,"Test System: CHINESE HAMSTER V-79, Strain/Indicator: V-79/6-THIOGUANINE, Metabolic Activation: RAT, LIVER, S-9, PHENOBARBITAL AND 5,6-BENZOFLAVONE, Method: REPLATING",active; positive
same,mutagenic call,"Test System: CHINESE HAMSTER V-79, Strain/Indicator: V-79/OUABAIN, Metabolic Activation: HAMSTER EMBRYO CELL-MEDIATED",inactive; negative
same,mutagenic call,"Test System: CHINESE HAMSTER V-79, Strain/Indicator: V-79/OUABAIN, Metabolic Activation: NONE",inactive; negative
same,mutagenic call,"Test System: CHINESE HAMSTER V-79, Strain/Indicator: V-79/OUABAIN, Metabolic Activation: RAT, LIVER, S-15, PHENOBARBITAL AND 5,6-BENZOFLAVONE",inactive; negative
same,mutagenic call,"Test System: E. COLI, Strain/Indicator: WP2 (PKM101), Metabolic Activation: RAT LIVER S-9, PHENOBARBITAL AND 5,6-BENZOFLAVONE, Method: STANDARD PLATE",inactive; negative
same,mutagenic call,"Test System: E. COLI, Strain/Indicator: WP2 UVRA (PKM101), Metabolic Activation: RAT LIVER S-9, PHENOBARBITAL AND 5,6-BENZOFLAVONE, Method: STANDARD PLATE",inactive; negative
same,mutagenic call,"Test System: MOUSE LYMPHOMA, Strain/Indicator: L5178Y (TK+/-)/TRIFLUROTHYMIDINE, Metabolic Activation: NONE, Method: SUSPENSION/PLATE",inactive; negative
same,mutagenic call,"Test System: MOUSE LYMPHOMA, Strain/Indicator: L5178Y (TK+/-)/TRIFLUROTHYMIDINE, Metabolic Activation: RAT LIVER S-9, AROCLOR 1254, Method: SUSPENSION/PLATE",inactive; negative
same,mutagenic call,"Test System: MOUSE LYMPHOMA, Strain/Indicator: L5178Y (TK+/TK-), Metabolic Activation: NONE, Method: SUSPENSION/PLATE",inactive; negative
same,mutagenic call,"Test System: MOUSE LYMPHOMA, Strain/Indicator: L5178Y (TK+/TK-), Metabolic Activation: RAT, LIVER, S-9, Method: SUSPENSION/PLATE",inactive; negative
same,mutagenic call,"Test System: MOUSE LYMPHOMA, Strain/Indicator: L5178Y (TK+/TK-), Metabolic Activation: S-9, Method: SUSPENSION/PLATE",active; positive
same,mutagenic call,"Test System: UDS RAT HEPATOCYTES, Strain/Indicator: THY INCORP, Metabolic Activation: NONE, Method: LIQUID SCINTILLATION COUNTING",active; positive
